We go through seven compounds from patent US20260274894A1, “CYCLIC POLYPEPTIDE COMPOUND AND USE THEREOF” (BIVISION PHARMACEUTICALS, INC., priority 2023, published 2026).

Numbered stars: 1 amine (or outer) side, 2 acyl side, 3 side chain; on linkers, the order of the positions; unused ones are H or OH. Bridge positions count the residues as written; N and C are the ends. Square brackets hold non-standard residues; d marks the D form. Side chains are listed from the residue outwards. Peptide text beside a SMILES is read from it. * marks the point of attachment. ξ: configuration not given here. Acetyl(4-DOTA-piperazinyl) = O=C(O)CN1CCN(CC(=O)O)CCN(CC(=O)N2CCN(CC(=O)*)CC2)CCN(CC(=O)O)CC1; X2 = O=C(O)CN1CCN(CC(=O)O)CCN(CC(=O)N2CCN(CCCN*)CC2)CCN(CC(=O)O)CC1; X1 = O=C(O)CN1CCN(CC(=O)O)CCN(CC(=O)CCCN*)CCN(CC(=O)O)CC1; DOTA = O=C(O)CN1CCN(CC(=O)O)CCN(CC(=O)*)CCN(CC(=O)O)CC1; Azetidine3carboxylic = O=C(C1CN([*:1])C1)[*:2]; mXylylene = c1cc(C[*:1])cc(C[*:2])c1; Cha = N[C@@H](CC1CCCCC1)C(=O)O; Dab = NCC[C@H](N)C(=O)O; Dap = NC[C@H](N)C(=O)O; Aoc = NCCCCCCCC(=O)O; CO = O=C([*:1])[*:2]; ξP = O=C(O)C1CCCN1; ξC = NC(CS)C(=O)O; NHBu = CCCCN*

The target in data set [1] is T1, FAP protein (Homo sapiens, UniProt Q12884).
T1 construct: purchased Sinobiological
T1 sequence (Q12884 1-760): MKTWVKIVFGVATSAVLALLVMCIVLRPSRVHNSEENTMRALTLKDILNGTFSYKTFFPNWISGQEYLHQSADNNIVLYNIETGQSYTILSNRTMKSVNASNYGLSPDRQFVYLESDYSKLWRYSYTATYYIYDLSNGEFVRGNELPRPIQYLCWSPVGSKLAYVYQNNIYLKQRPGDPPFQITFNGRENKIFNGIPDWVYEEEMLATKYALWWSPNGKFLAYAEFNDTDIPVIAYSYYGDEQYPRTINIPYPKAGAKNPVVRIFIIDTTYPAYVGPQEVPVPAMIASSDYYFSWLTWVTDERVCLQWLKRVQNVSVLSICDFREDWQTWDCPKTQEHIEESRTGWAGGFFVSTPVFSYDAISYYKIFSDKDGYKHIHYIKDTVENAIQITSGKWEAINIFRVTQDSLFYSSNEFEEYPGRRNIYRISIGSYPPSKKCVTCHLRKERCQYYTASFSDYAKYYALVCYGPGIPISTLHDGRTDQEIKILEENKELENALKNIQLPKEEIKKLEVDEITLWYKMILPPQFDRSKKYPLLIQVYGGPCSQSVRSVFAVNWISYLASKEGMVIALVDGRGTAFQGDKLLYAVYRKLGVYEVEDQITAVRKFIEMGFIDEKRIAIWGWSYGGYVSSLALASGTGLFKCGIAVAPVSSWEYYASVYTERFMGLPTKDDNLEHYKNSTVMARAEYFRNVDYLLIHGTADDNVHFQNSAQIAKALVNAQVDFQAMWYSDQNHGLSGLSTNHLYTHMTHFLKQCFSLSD
The data set can be described thus: Biacore test of compound affinity to FAP protein. The following applies: Biacore 8K, SA chip, 15° C., 1:1 binding model; read-out: pKD (FAP) (converted). An outline of the steps:
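FAP captured on an SA chip; compounds run as analyte in single-cycle kinetics at 15° C (90 s contact, 1800 s dissociation, 30 μL/min), reference-subtracted (2-1). Sensorgrams fitted to a 1:1 binding model to give KD, reported as pKD = −log KD.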

In data set [2] the target is T2, fibroblast activation protein (FAP) (Homo sapiens, UniProt Q12884).
T2 sequence (Q12884 1-760): T1 sequence (Q12884 1-760)
Description: Protease inhibition (selectivity) assay, FAP, Z-Gly-Pro-AMC substrate. The data set is classed as biochemical. Particulars: recombinant human FAP 1.2 nM. Here is the method:
(§1) The specificity of the synthesized compounds for recombinant human dipeptidyl peptidase IV (DPPIV), fibroblast activation protein (FAP), or prolyl oligopeptidase (PREP) was expressed by their half-maximal inhibitory concentration (IC50) against the proteases. […] No. I-1145.0050BA) in DMSO; DPPIV: 100 mM Gly-Pro-AMC (VWR, Cat. No. 100042-646) in DMSO), and the stock solution of the substrate was subsequently diluted 20-fold using the corresponding buffer described above. • 4) The enzyme was diluted into an appropriate assay buffer. […] Column 1 (A, B, C) was prepared using 200 μL of an appropriate analysis buffer as a control. Column 1 (D, E, F, G, H) was prepared with 20 μL of an appropriate assay buffer and 180 μL of the enzyme as the inhibitor-free control. • 5) Where appropriate, 20 μL of the test compound was added from the dilution plate prepared in step 2 to columns 2-10 of the assay plate. Each sample should be tested in triplicate. It was incubated at room temperature for 10 minutes, with the plate being shaken for the first two minutes. • 6) 10 μL of the 20× substrate prepared in step 3 was added to each well and incubated at room temperature for 15 minutes, with the plate being shaken for the first two minutes. • 7) Fluorescence was read at λex:380 and λem:460.

Data set [3] concerns the target dipeptidyl peptidase IV (DPPIV) (Homo sapiens, UniProt P27487). Description: Protease inhibition (selectivity) assay, DPPIV, Gly-Pro-AMC substrate. The data set is classed as biochemical. Particulars: recombinant human DPPIV 0.1 nM; read-out: pIC50 (DPPIV) (converted). As for the experimental part:
as §1

For data set [4], the target named is T3, prolyl oligopeptidase (PREP) (Homo sapiens, UniProt P48147).
T3 sequence (P48147 1-710): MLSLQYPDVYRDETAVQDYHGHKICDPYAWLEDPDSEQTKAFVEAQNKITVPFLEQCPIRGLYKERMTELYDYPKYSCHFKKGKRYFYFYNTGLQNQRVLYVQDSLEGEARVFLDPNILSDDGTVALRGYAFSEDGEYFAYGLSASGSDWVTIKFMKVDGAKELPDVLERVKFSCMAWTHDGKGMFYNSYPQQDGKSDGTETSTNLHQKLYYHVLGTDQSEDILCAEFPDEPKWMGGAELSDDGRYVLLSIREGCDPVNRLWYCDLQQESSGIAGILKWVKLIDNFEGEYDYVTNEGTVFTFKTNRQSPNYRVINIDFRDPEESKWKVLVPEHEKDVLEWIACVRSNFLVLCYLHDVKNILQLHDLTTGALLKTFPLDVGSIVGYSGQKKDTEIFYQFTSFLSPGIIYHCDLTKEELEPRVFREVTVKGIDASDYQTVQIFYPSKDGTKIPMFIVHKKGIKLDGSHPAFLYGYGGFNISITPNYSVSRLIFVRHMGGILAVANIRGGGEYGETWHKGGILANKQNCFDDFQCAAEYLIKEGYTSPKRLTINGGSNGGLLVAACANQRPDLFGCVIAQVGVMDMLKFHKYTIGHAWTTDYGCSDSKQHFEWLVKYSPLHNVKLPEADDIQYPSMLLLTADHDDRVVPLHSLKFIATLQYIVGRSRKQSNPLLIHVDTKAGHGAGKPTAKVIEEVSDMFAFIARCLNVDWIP
The data set can be described thus: Protease inhibition (selectivity) assay, PREP, Z-Gly-Pro-AMC substrate. The data set is classed as biochemical. Particulars: recombinant human PREP 0.6 nM. As for the experimental part: as §1

Data set [5] is described as follows: Animal body weight after injection of ^177Lu-labeled compound. Particulars: Day 2. As for the experimental part:
6- to 8-week-old (Balb/c Nude) mice were subcutaneously inoculated on the right scapula with 2×10^6 cells of HT1080 2 # (50% o Matrigel, Corning). When the tumors grew to the size as required by the assay, the animals were randomly assigned to 13 experimental groups based on tumor volume, with 5 animals per group. The body weight and tumor size were measured. On the day of grouping, administration was initiated for the control group (normal saline) and groups 1-12. General health and appearance were observed daily after the experiment began. Body weight and tumor size were measured prior to each sample collection time point. Any abnormal observations found during the entire study period were required to be recorded in the raw data.

dipeptidyl peptidase IV (DPPIV), sequence (P27487 whole entry): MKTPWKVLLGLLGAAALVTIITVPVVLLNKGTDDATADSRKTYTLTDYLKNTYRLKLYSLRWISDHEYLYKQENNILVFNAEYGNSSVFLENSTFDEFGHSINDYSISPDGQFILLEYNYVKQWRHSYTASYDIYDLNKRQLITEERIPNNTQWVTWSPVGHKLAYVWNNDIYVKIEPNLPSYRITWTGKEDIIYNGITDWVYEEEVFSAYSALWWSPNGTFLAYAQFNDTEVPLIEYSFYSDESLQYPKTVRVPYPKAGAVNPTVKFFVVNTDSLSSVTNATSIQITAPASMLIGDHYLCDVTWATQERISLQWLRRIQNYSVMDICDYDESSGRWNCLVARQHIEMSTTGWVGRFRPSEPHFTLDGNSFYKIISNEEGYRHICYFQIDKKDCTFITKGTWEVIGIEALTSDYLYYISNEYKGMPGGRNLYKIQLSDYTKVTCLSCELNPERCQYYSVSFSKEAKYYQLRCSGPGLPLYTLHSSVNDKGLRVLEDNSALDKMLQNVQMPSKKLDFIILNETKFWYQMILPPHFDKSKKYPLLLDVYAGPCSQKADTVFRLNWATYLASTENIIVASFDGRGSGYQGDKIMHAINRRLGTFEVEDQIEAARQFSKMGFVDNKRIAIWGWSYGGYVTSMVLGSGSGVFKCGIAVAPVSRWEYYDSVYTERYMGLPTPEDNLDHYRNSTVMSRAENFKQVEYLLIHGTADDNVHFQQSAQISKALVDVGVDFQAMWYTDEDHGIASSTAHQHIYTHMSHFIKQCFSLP

As for `CCCCCC(=O)N[C@H]1CSCc2cccc(c2)CSC[C@@H](C(=O)N[C@@H](CCC(=O)NCCNC(=O)CN2CCN(CC(=O)O)CCN(CC(=O)O)CCN(CC(=O)O)CC2)C(=O)O)NC(=O)[C@H](Cc2ccccc2)NC(=O)[C@H](CCC(N)=O)NC(=O)[C@H]([C@@H](C)O)NC(=O)[C@@H]2CCCN2C(=O)C2CN(C2)C1=O` [JHDC23, Hex[Cys(3MeBn)-hhy39-Pro-Thr-Gln-Phe-Cys]-Glu-(EDA-DOTA)-OH], in data set [1], the Kd was 10 to 100 nM. In addition, the IC50 was below 10 nM in data set [2], above 1000 nM in data set [3] and above 1000 nM in data set [4].

Turning to `CCCCNC(=O)N[C@H]1CSCc2cccc(c2)CSC[C@@H](C(=O)N[C@@H](CCC(=O)NCCCC(=O)CN2CCN(CC(=O)O)CCN(CC(=O)O)CCN(CC(=O)O)CC2)C(=O)O)NC(=O)[C@H](Cc2ccccc2)NC(=O)[C@H](CCC(N)=O)NC(=O)[C@H]([C@@H](C)O)NC(=O)[C@@H]2CCCN2C(=O)C2CN(C2)C1=O` [JHDC24, nBu-urea-[Cys(3MeBn)-hhy39-Pro-Thr-Gln-Phe-Cys]-Glu-(EDA-DOTA)-OH] ({NHBu-CO}-C[Azetidine3carboxylic]PTQFCE(X1)-OH; linker 1-7 via mXylylene), the Kd in data set [1] is 10 to 100 nM. In addition, the IC50 is below 10 nM in data set [2], above 1000 nM in data set [3] and above 1000 nM in data set [4].

In the case of `CCCCNC(=O)N[C@H]1CSCc2cccc(c2)CSCC(C(=O)N[C@@H](CNC(=O)CN2CCN(C(=O)CN3CCN(CC(=O)O)CCN(CC(=O)O)CCN(CC(=O)O)CC3)CC2)C(=O)O)NC(=O)[C@H](CC2CCCCC2)NC(=O)[C@H](CCC(N)=O)NC(=O)[C@H]([C@@H](C)O)NC(=O)C2CCCN2C(=O)C2CN(C2)C1=O` (stereo partly drawn) [JHDC47, nBu-urea-[Cys(3MeBn)-hhy39-Pro-Thr-Gln-hhy34-Cys]-DAPA-(Ac-piperazine-DOTA)-OH] ({NHBu-CO}-C[Azetidine3carboxylic][ξP]TQ[Cha][ξC][Dap](Acetyl(4-DOTA-piperazinyl))-OH; linker 1-7 via mXylylene), in data set [1], the Kd is below 10 nM. For the same compound, the IC50 in data set [2] is below 10 nM; in data set [3] it was above 1000 nM; in data set [4], above 1000 nM.

Take `CCCCNC(=O)N[C@H]1CSCc2cccc(c2)CSC[C@@H](C(=O)N[C@@H](CCC(=O)NCCCN2CCN(C(=O)CN3CCN(CC(=O)O)CCN(CC(=O)O)CCN(CC(=O)O)CC3)CC2)C(=O)O)NC(=O)[C@H](Cc2ccccc2)NC(=O)[C@H](CCC(N)=O)NC(=O)[C@H]([C@@H](C)O)NC(=O)C2CCCN2C(=O)C2CN(C2)C1=O` (stereo partly drawn) [JHDC48, nBu-urea-[Cys(3MeBn)-hhy39-Pro-Thr-Gln-Phe-Cys]-Glu-(aminopropylpiperazine-DOTA)-OH] ({NHBu-CO}-C[Azetidine3carboxylic][ξP]TQFCE(X2)-OH; linker 1-7 via mXylylene): in data set [1], the Kd is 10 to 100 nM. Also, the IC50 in data set [2] is below 10 nM; in data set [3], above 1000 nM; in data set [4] it was above 1000 nM.

For the compound `CCCCNC(=O)N[C@H]1CSCc2cccc(c2)CSCC(C(=O)N[C@@H](CCNC(=O)CCCCCCCNC(=O)CN2CCN(CC(=O)O)CCN(CC(=O)O)CCN(CC(=O)O)CC2)C(=O)O)NC(=O)[C@H](CC2CCCCC2)NC(=O)[C@H](CCC(N)=O)NC(=O)[C@H]([C@@H](C)O)NC(=O)C2CCCN2C(=O)C2CN(C2)C1=O` (stereo partly drawn) [JHDC53, nBu-urea-[Cys(3MeBn)-hhy39-Pro-Thr-Gln-hhy34-Cys]-DABA-(AOA-DOTA)-OH] ({NHBu-CO}-C[Azetidine3carboxylic][ξP]TQ[Cha][ξC][Dab]([Aoc-DOTA])-OH; linker 1-7 via mXylylene), the Kd in data set [1] was 10 to 100 nM. In addition, the IC50 was below 10 nM in data set [2], above 1000 nM in data set [3] and above 1000 nM in data set [4].

For the compound `CCCCNC(=O)N[C@H]1CSCc2cccc(c2)CSCC(C(=O)N[C@@H](CCNC(=O)CNC(=O)CN2CCN(CC(=O)O)CCN(CC(=O)O)CCN(CC(=O)O)CC2)C(=O)O)NC(=O)[C@H](CC2CCCCC2)NC(=O)[C@H](CCC(N)=O)NC(=O)[C@H]([C@@H](C)O)NC(=O)[C@@H]2CCCN2C(=O)C2CN(C2)C1=O` (stereo partly drawn) [JHDC56, nBu-urea-[Cys(3MeBn)-hhy39-Pro-Thr-Gln-hhy34-Cys]-DABA-(Gly-DOTA)-OH], the Kd in data set [1] was below 10 nM. Also, the IC50 in data set [2] is below 10 nM; in data set [3] it was above 1000 nM; in data set [4], above 1000 nM.

As to `CCCCNC(=O)N[C@H]1CSCc2cccc(c2)CSCC(C(=O)N[C@@H](CNC(=O)CN2CCN(C(=O)CN3CCN(CC(=O)O)CCN(CC(=O)O)CCN(CC(=O)O)CC3)CC2)C(=O)O)NC(=O)[C@H](CC2CCCCC2)NC(=O)[C@H](CCC(N)=O)NC(=O)[C@H]([C@@H](C)O)NC(=O)C2CCCN2C(=O)C2CN(C2)C1=O` (stereo partly shown) [^177Lu-JHDC47, metal not drawn] ({NHBu-CO}-C[Azetidine3carboxylic][ξP]TQ[Cha][ξC][Dap](Acetyl(4-DOTA-piperazinyl))-OH; linker 1-7 via mXylylene), in data set [5], the “Animal body weight” value is reported as 16.00 ± 0.54 g.
